“Also recorded” adds a separate entry of the source. Like-named read-outs stand apart in the source and are kept apart here.
Key:
[1] = target: T1, interaction between HPV-16 E6 and E6AP (Human papillomavirus type 16, UniProt P03126); assay: biochemical; type: binding; details: for Emax: read-out: Maximal Inhibition; for activity and potency in E6/E6AP binding assay (in words): SAR library, initial 5-point dose range 12.3 µM to 1 mM
T1 construct: made in house; host or cells: E. coli BL21
Protocol: To characterize potential E6 inhibitors, a robust in vitro assay was developed to measure the interaction between HPV-16 E6 and E6AP. […] The core 70 amino acids of the E6 binding region of E6AP (residues 371-440) was fused to bacterial alkaline phosphatase (BAP) in the MY101 vector [40]. […] Binding efficiency was determined from the intensity of BAP activated chemiluminescence remaining in each well.
Kinetic analysis was performed to characterize the protein-protein interaction inherent in this assay.
The collection of 72 available structural-lead compounds was tested in the filter-plate based in vitro E6-E6AP binding assay. […] Compounds that disrupted the Flag-BAP interaction with the same potency as the HPV-16 E6 and E6AP interaction were classified as non-specific and eliminated from further analysis. […]
(§1) Pre-Block - 96-well filter plates were prepared (0.2 µm BioTrace NT, Pall). 100µL of blocking buffer (100 mM Tris pH 8.0, 100 mM NaCl, 0.1% milk) was added per well. Plates were blocked for 1 hr at RT on an orbital shaker. Buffer was removed by vacuum filtration using a vacuum manifold. GST-E6 Bead addition – GST-E6 beads were prepared at 5µg/mL in GST-E6 bead buffer (100 mM Tris pH 8.0, 100 mM NaCl, 0.1% milk, 2.5 mM DTT). 100µL of GST-E6 bead mix was added per well and incubated for 1 hr at 4°C. Buffer was removed by vacuum filtration. […] 48 µL of each reagent was added per well. For drug assay, 2µL of compound was added to each well and mixed thoroughly. […] Plates were incubated for 1-3 hours at RT on an orbital shaker. Buffer was removed by vacuum filtration. Plates were washed on the vacuum manifold, first with 200 µL buffer (100 mM Tris pH 8.0, 100 mM NaCl, 1 mM DTT), and twice more with 100µL lysis buffer without DTT. Plates were cleared and dried with on the vacuum manifold. Assay – Immunostar assay reagent was prepared and equilibrated to RT prior to addition. 60 µL of Immunostar-AP assay reagent was added, the BAP activity was allowed to develop for 10 minutes and the plates were read on a Wallace Luminometer. BAP activity was measured as relative light units (RLU) on a luminometer using the Immunostar-AP substrate (BioRad).

[2] = test system: interaction between anti-FLAG antibody and the FLAG epitope in the E6AP-BAP fusion; assay: FLAG/BAP specificity filter binding assay
Protocol: The collection of 72 available structural-lead compounds was tested in the filter-plate based in vitro E6-E6AP binding assay. Compounds were tested twice at concentrations of 10, 50, and 100 µM. […] Compounds that disrupted the Flag-BAP interaction with the same potency as the HPV-16 E6 and E6AP interaction were classified as non-specific and eliminated from further analysis.
Figure 3 Activity of flavonoids in the in vitro binding assay. Compounds were tested in vitro for the ability to disrupt the E6-E6AP interaction. […] Percent inhibition was determined by the amount of BAP activity remaining in the well after washing and normalized to DMSO. Data was plotted by linear regression for single site binding using Prism (n=3, S.E.M.).
(§2) This interaction between E6 and hDlg occurs at the C-terminus of E6 and is independent of the interaction between E6 and the charged leucine helix in E6AP [21, 22].

[3] = test system: HPV-16 E6 mediated p53 degradation; assay: in vitro HPV-16 E6 mediated p53 degradation assay; type: biochemical
Protocol: In vitro expressed p53 was incubated in rabbit reticulocyte lysate in the presence or absence of in vitro expressed HPV16 E6. p53 levels were reduced in reaction containing E6 proteins (Figure 8 ).
Control reactions (no DNA, p53 alone) were incubated with 1 µL wheat germ extract and 2% DMSO in reaction buffer. In vitro translated p53 and rabbit reticulocyte lysate (RRL, Promega) were added to all reactions except the no DNA control reaction to which wheat germ extract was added instead of p53. Reactions were incubated for 3 hrs at 30°C and stopped by addition of 6X reducing SDS sample buffer and heating at 95°C for 5 min. Each reaction was loaded onto a 10% SDS-PAGE gel and transferred onto PVDF (0.45 µm). p53 and 16E6 were visualized using monoclonal p53 (Pab1801, 1:1000), monoclonal 16E6 (813, Arbor Vita Corporation, 1:4000) antibody and anti-mouse HRP-labeled secondary antibody (1:2000, Sigma-Aldrich).

MBP-E6 = target: T2, MBP-E6 (Human papillomavirus type 16, UniProt P03126); assay: thermal shift (Sypro Orange) assay; type: binding, HPV-16; details: versus DMSO; for effect on Tm of MBP-E6: 5-150 µM tested
T2 construct: made in house; host or cells: E. coli BL21DE(3)
Protocol: A thermal shift assay was used to assess compound binding to HPV E6. In this reaction, protein denaturation is measured by an increase in fluorescence from Sypro Orange as it binds to the newly exposed hydrophobic surfaces on the protein [48]. A protein stability curve is created as a measure of the rate of protein unfolding. The relative fluorescence is plotted against temperature and the melting temperature (Tm) is determined by calculating the temperature of peak fluorescence. Ligand binding can stabilize the protein and increase the Tm. The thermal profile of MBP-E6 proteins was investigated to determine if the flavonoid derivatives could stabilize MBP-E6 protein structure during heat-induced unfolding. […] The change in Tm (∆Tm) was plotted for each compound and compared to DMSO (Figure 10F,G ).
MBP-16E6 DNA, a kind gift from G. Travé [58], was transformed into BL21DE(3) E. coli. Protein expression was performed by inoculation of a 1 mL starter culture in 100 mL of Turbo-Broth containing 0.2 % lactose, 0.05% glucose and 0.6% glycerol at 20°C for 24 hrs. Cells were lysed in 50 mM Tris HCl pH 6.8, 300 mM NaCl, 0.1 % (v/v) NP-40, 2 mM DTT and 1x protease inhibitor cocktail (EDTA-free, Roche) and sonicated as described before. Cell lysate was cleared by centrifugation at 15000xg, 4°C for 30 min and equilibrated with amylose resin beads (New England Biolabs, Inc.) by inversion for 3 hrs at 4°C. Bound beads were washed one time in lysis buffer and four times with wash buffer (50 mM Tris-HCl pH 6.8, 400 mM NaCl, 2 mM DTT, 1x protease inhibitor cocktail). Bound MBP-E6 proteins were eluted using a final concentration of 20 mM maltose in 5 bed volumes of wash buffer. All steps were performed at 4°C. Protein concentration was measured by BCA (BioRad). Thermostability of MBP-E6 proteins was analyzed at a final concentration of 1 µM in reaction buffer (50 mM TrisHCl pH 6.8, 400 mM NaCl, 2 mM DTT). MBP-E6 proteins were equilibrated with CAF-8 (5 µM-150 µM), CAF-24 (5 µM-150 µM), CAF-26 (5 µM-150 µM) or DMSO for 30 min in reaction buffer. Sypro Orange, a hydrophobic fluorescent dye, was added at the end of the incubation period at a final concentration of 5X. The final DMSO concentration (1.8% v/v) was kept constant across the concentration range. Fluorescence was measured using the FRET channel of CFX96 Real-Time PCR thermal cycler (BioRad) over a temperature range of 25°C to 95°C. Temperature increments were set to 0.5°C for 30 sec followed by plate reading. Melt curves were determined in triplicate and repeated four times. Melt curves represent the relative fluorescence of the 1st derivative of four experiments. Melting temperature (Tm) was calculated by CFX manager software. The average melting temperature of the triplicate was used to calculate the ∆Tm for each experiment. ∆Tm values are expressed as the change vs. DMSO.

[4] = target: T3, interaction between GST-E6 and three PDZ domains of hDlg fused to BAP (hDlg-BAP) (Human papillomavirus type 16, UniProt P03126); assay: E6/hDlg-BAP specificity filter binding assay; set-up: species or system HPV-16
T3 construct: made in house; host or cells: E. coli BL21
Protocol: as §2
as §1, with “Plates were cleared and dried with on the vacuum manifold. Assay – Immunostar assay reagent was prepared and equilibrated to RT prior to addition.” left out

[5] = solubility in aqueous SPR buffers; type: physicochemical; details: simple aqueous solution
[6] = target: T4, GST-HPV-16 E6 (human papillomavirus type 16), P03126; assay: filter plate bead binding assay (BAP chemiluminescence); competition: peptide added to bead-bound GST-E6 and free E6AP-BAP; 1 hour incubations
T4 chain: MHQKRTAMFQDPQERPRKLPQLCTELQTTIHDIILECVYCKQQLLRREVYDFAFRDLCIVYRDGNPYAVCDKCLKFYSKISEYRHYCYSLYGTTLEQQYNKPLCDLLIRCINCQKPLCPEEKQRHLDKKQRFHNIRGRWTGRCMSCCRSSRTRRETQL

[7] = in silico leads retested in duplicate at 5 concentrations 5 to 250 µM

O=c1cc(-c2ccc(O)cc2)oc2cc(O)cc(O)c12 [CAF-14]
increase of IC50 relative to luteolin [1]: 15-30 fold

O=C(O)c1cccc(-c2ccc3c(=O)cc(-c4ccccc4)oc3c2)c1 [CAF30]
IC50 [1]: 47.3 µM
Emax [1]: 84%

COc1ccc(-c2ccc3oc(-c4ccccc4)cc(=O)c3c2)c(OC)c1C(=O)O [CAF29]
IC50 [1]: 12.5 µM
Emax [1]: 75%

COc1ccc(CC2c3c(cc(OC)c(O)c3OC)CCN2C)cc1OC (centres unmarked) [Compound 117]
IC50 [1, 7]: low micromolar IC50 values
non-specific inhibition / specificity in FLAG-E6AP control assay [2]: inhibited binding in the FLAG-E6AP assay

COc1cc(O)cc2oc(-c3ccc(O)c(O)c3)cc(=O)c12 [CAF-10]
activity and potency in E6/E6AP binding assay (in words) [1]: same potency and activity as luteolin

O=C(O)c1cc(-c2ccc3c(=O)cc(-c4ccccc4)oc3c2)ccc1F [CAF32]
IC50 [1]: 48 µM
Emax [1]: 75%

O=C(O)c1cc(-c2ccc3c(=O)cc(-c4ccccc4)oc3c2)ccc1Cl [CAF31]
IC50 [1]: 62.2 µM
Emax [1]: 86%

COc1cc(OC)c2c(=O)cc(-c3ccc(OC)c(OC)c3)oc2c1 [CAF-8]
effect on E6 mediated p53 degradation ([3]; 10 µM compound pre-incubated with E6): did not alter E6 mediated p53 degradation
effect on E6 mediated p53 degradation ([3]; 100 µM compound pre-incubated with E6): did not alter E6 mediated p53 degradation
activity and potency in E6/E6AP binding assay (in words) [1]: no activity
effect on Tm of MBP-E6 (MBP-E6): unable to significantly alter MBP-E6 melting temperature; also recorded: no measurable effect

O=C(O)c1cccc(-c2ccc3oc(-c4cccc(O)c4)cc(=O)c3c2)c1 [CAF28]
Emax [1]: 75%

O=c1cc(-c2ccccc2)oc2ccc(-c3cccc(-c4nnn[nH]4)c3)cc12 [CAF27]
IC50 [1]: 6.9 µM
Emax [1]: 96%

CC(=O)Oc1cc(OC(C)=O)c2c(=O)c(OC(C)=O)c(-c3ccc(OC(C)=O)c(OC(C)=O)c3)oc2c1 [Compound 168]
IC50 [1]: 44 µM
IC50 [1, 7]: low micromolar IC50 values
non-specific inhibition / specificity in FLAG-E6AP control assay [2]: some non-specific inhibitory activity

CC(=O)Oc1cc(OC(C)=O)c2c(=O)cc(-c3ccc(OC(C)=O)c(OC(C)=O)c3)oc2c1 [Compound 170]
IC50 [1]: 44 µM
activity and potency in E6/E6AP binding assay (in words) [1]: much lower activity and potency than observed with the initial hit
IC50 [1, 7]: low micromolar IC50 values
non-specific inhibition / specificity in FLAG-E6AP control assay [2]: more selective inhibitor of the E6-E6AP interaction

O=c1cc(-c2ccc(O)c(O)c2)oc2cccc(O)c12 [CAF-13]
increase of IC50 relative to luteolin [1]: 15-30 fold

O=c1cc(-c2cccc(C(F)(F)F)c2)oc2ccc(-c3nnn[nH]3)cc12 [CAF25]
IC50 [1]: 1.1 µM
Emax [1]: 95%

O=c1cc(-c2ccccc2)oc2ccc(-c3nnn[nH]3)cc12 [CAF-26]
IC50 [1]: 5.1 µM
IC50 ([1]; full 7-point dose response, 0.5 µM to 333 µM, quadruplicate): low micromolar IC50 values
Emax [1]: 97%
non-specific inhibition / specificity in FLAG-E6AP control assay [2]: increased specificity against the FLAG and hDlg control binding reactions
specificity against hDlg control binding reaction [4]: increased specificity against the FLAG and hDlg control binding reactions
aqueous solubility (in words) [5]: limited aqueous solubility
effect on Tm of MBP-E6 (MBP-E6): about 1 °C
shift of MBP-E6 Tm (MBP-E6; at 25, 50 and 150 µM): ~1 °C

CC[C@H](C)[C@H](N)C(=O)N1CCC[C@H]1C(=O)N[C@@H](CCC(=O)O)C(=O)N[C@@H](CO)C(=O)N[C@@H](CO)C(=O)N[C@@H](CCC(=O)O)C(=O)N[C@@H](CC(C)C)C(=O)N[C@H](C(=O)N[C@@H](CC(C)C)C(=O)N[C@@H](CCC(N)=O)C(=O)N[C@@H](CCC(=O)O)C(=O)N[C@@H](CC(C)C)C(=O)N[C@@H](CC(C)C)C(=O)NCC(=O)N[C@@H](CCC(=O)O)C(=O)N[C@@H](CCC(=O)O)C(=O)N[C@@H](CCCNC(=N)N)C(=O)N[C@@H](CCCNC(=N)N)C(=O)O)[C@@H](C)O [E6AP 18-mer, reference compound]
inhibition at 100 µM ([1]; read-out: inhibition of binding): 95%

COc1ccc(NC2Oc3cc(O)ccc3C=C2C(=O)Nc2cccc(C)n2)cc1OC (centres unmarked) [Compound 160]
IC50 [1, 7]: low micromolar IC50 values
non-specific inhibition / specificity in FLAG-E6AP control assay [2]: inhibited binding in the FLAG-E6AP assay

IPESSELTLQELLGEERR (modifications not checked) [E6AP 18-mer peptide]
percent inhibition at 100 µM [6]: 95%
